According to patent publication US9857359B2, “Methods for determining drug efficacy using cereblon-associated proteins” (CELGENE CORPORATION, priority 2012, dated 2018):

What was measured:
Aiolos = Aiolos expression in viably frozen PBMCs prepared from treated whole blood, FACS; format: cell-based, human
Description: Pre-weighed test compound was dissolved in 100% DMSO to make 100 mM or 10 mM stock concentrations. The compound in 100% DMSO was diluted to 10 mM, 1 mM, or 0.1 stock concentrations as appropriate. Compounds were directly added to heparinized human whole blood (1:1000 dilution) for final concentrations of 10 μM, 1 μM, or […] as appropriate. Seven (7) ml of whole blood was transferred to a 50 mL conical tube and treated with test compound. The blood was incubated for 1.5 or 5 hours at 37° C., 5% CO2. After each time point, 3.5 ml blood was transferred to BD Vacutainer CPT cell preparation tube, and the tube was […] inverted 10 times and centrifuged at RT, 1800 RCF for 20 minutes. Mononuclear layer was collected and transferred to 15 ml conical tube (3×3.5 ml DMSO controls were added to three CPT tubes, and mononuclear layers were collected and combined for following steps). The tube was filled up with cold PBS and centrifuged at 4° C., 300 RCF for 15 minutes. Supernatant was discarded and cell pellet was resuspended in 2 ml freezing medium (10% DMSO+90% FBS). The cell suspension was transferred to cryovial and was placed in Mr. Frosty (Fisher, cat. 15-350-50) and left at −80° C. freezer O/N.
The cells were thawed in 37° C. water bath and centrifuged, and the freezing medium was removed. The cell pellet was washed 1× with cold PBS. The cells were lyzed and fixed by adding 1× Lyse/Fix buffer and mixed thoroughly by inverting the tube several times. The cell lyse/fix and blood mixture was incubated in a 37° C. water bath for 10 minutes. Cells were pelleted by centrifugation at 500×g for 5 minutes and removed the supernatant by aspiration. Cells were suspended with 1 mL of cold PBS, and then pelleted by centrifugation at 500×g for 5 minutes, and the supernatant was aspirated off. Two hundred (200) μL of PBS was added to cells. Cells were transferred to polystyrene U-bottom 96-well plates (BD, Cat. No. 353910) for use with the FACSCanto HTS. Cells were washed with 200 μL of cold PBS and spun at 500×g for 5 minutes, and the plate was flicked and gently dapped on a paper towel to remove excess buffer. The cells were resuspended and permeabilized by adding 200 μL of cold BD Perm/Wash Buffer I and incubated on ice for 30 minutes. The cells were pelleted by centrifugation at 500×g for 5 minutes and the buffer removed. The cells were washed once with 200 μL BD perm/wash buffer and repelleted, and the buffer was removed.
The cell pellet was resuspended in 40 μL of BD perm/wash buffer. Twenty (20) μL each of anti-CD3-PE, anti-CD20-APC, and anti-Aiolos Rabbit antibodies, or 20 μL of appropriate isotype controls, or 20 μL of 1:400 of normal Rabbit IgG (control for Aiolos) were added to the cells. The mixture was mixed thoroughly and incubated at room temperature for 45 minutes in the dark. The mixture was centrifuged and washed once with BD perm/wash buffer at 500×g for 5 minutes. The cell pellet was resuspended in 80 μL of BD perm/wash buffer, and 20 μL of secondary Goat Anti-Rabbit IgG AF488 antibody (at 1:400 dilution in Perm/Wash Buffer) was added, and the mixture was incubated at RT for 30 min in the dark. Secondary antibody was not added to the isotype controls. The mixture was washed once with 200 μL BD Stain Buffer and centrifuged at 500×g for 5 minutes, and the pelleted cells were resuspended in 200 μL of staining buffer. The cells were analyzed on the BD FACSCanto using the HTS platform. The cells were analyzed using the standard method. If the cells cannot be read right away, the plates were covered in foil to protect from light and stored at 4° C. for up to 2 days. Data analysis was carried out using FlowJo from Tree Star, Inc. to assess mean fluorescence intensity and percent inhibition of Aiolos in cell population.

[1] = system: Aiolos peptide containing lysine 203; experiment: UbiScan mass spectrometry of ubiquitylated proteins in multiple myeloma cells; format: cell-based
Excerpt: Mass spectrometry of ubiquitylated proteins (Ubiscan™): Cell Signaling Technology's UbiScan™ proteomics platform was used to identify and quantify differences in ubiquitination in primary human T cells untreated (Treatment 1) or treated with Treatment 2 or Treatment 3, and in MM cell lines treated with immunomodulatory compounds in the presence or absence of the proteasome inhibitor MG132. The UbiScan™ method combines the isolation of ubiquitinated peptides from protease digested protein extracts using CST's proprietary immunoaffinity purification method with the identification and quantitation of peptides by liquid chromatography, tandem mass spectrometry (LC-MS/MS). The quantification of ubiquitination is based on the abundance of the ubiquitinated peptides recovered by antibody immunoprecipitation. The abundance or intensity information for each ubiquitinated peptide is based on the peak height of that peptide measured in the MS1 channel. The confidence in the calculated fold change is dependent on a number of factors, an important one being the intensity or peak height of the ubiquitinated peptide. Samples were analyzed by LC-MS/MS on an ORBITRAP VELOS™ mass spectrometer. […] Label-free quantitation was performed by comparing peak intensities of the same peptide ion in each sample to generate their corresponding fold-changes. […]

| SMILES | Aiolos expression in T and B cell populations (Aiolos; 1.5 hours after the treatment) | Aiolos expression in lymphocytes (Aiolos; 1.5 hours after the treatment) | Aiolos expression in non-lymphocytes (Aiolos; 1.5 hours after the treatment) | Aiolos expression in lymphocyte cells (Aiolos; 5 hours after the treatment) | Aiolos expression in non-lymphocytes (Aiolos; 5 hours after the treatment) | Ubiquitination of Aiolos peptide containing lysine 203 [1] |
| --- | --- | --- | --- | --- | --- | --- |
| Cc1nc2cccc(N)c2c(=O)n1C1CCC(=O)NC1=O (stereo not drawn) [Compound A, 3-(5-amino-2-methyl-4-oxo-4H-quinazolin-3-yl)-piperidine-2,6-dione] | inhibitory effect was observed in both T and B cell populations | some inhibitory effects | no effect was observed | significant inhibitory effects | no such effects were observed | – |
| O=C1CC[C@H](N2Cc3c(OCc4ccc(CN5CCOCC5)cc4)cccc3C2=O)C(=O)N1 [Compound B, 3-(4-((4-(morpholinomethyl)benzyl)oxy)-1-oxoisoindolin-2-yl)piperidine-2,6-dione] | inhibitory effect was observed in both T and B cell populations | some inhibitory effects | no effect was observed | significant inhibitory effects | no such effects were observed | – |
| Nc1cccc2c1CN(C1CCC(=O)NC1=O)C2=O (stereo not drawn) [lenalidomide] | – | – | – | – | – | enhance the ubiquitination of Aiolos peptide containing lysine 203 |
| Nc1cccc2c1C(=O)N(C1CCC(=O)NC1=O)C2=O (stereo not drawn) [pomalidomide, reference compound] | – | – | – | – | – | enhance the ubiquitination of Aiolos peptide containing lysine 203 |
